We go through 23 molecules from US20160194359A1, “CELL-REACTIVE, LONG-ACTING, OR TARGETED COMPSTATIN ANALOGS AND RELATED COMPOSITIONS AND METHODS” (APELLIS PHARMACEUTICALS, INC., priority 2012, published 2016).

The nature of data set [1]: previous study of CA28 administered intravenously (historical data). The format is in vivo, Cynomolgus monkeys. The conditions noted are these: for Serum concentration: CA28 (IV) 200 mg/kg, unit not in table. The text has this: Average values and standard deviations are readily calculated. There was notable consistency between animals.
The data points represent all PEGylated CA28 compound detected.

The test system of a further data set is complement activation. The conditions noted are these: relative to compstatin amidated at the C-terminus; published data; cited from earlier work.
The target in data set [2] is T1, complement component C3 (human) (human, UniProt P01024 23-1663). Nature of the data set: cell-based or functional assay.
Data set [3] has as its target T1, complement component C3 (human). The data set can be described thus: cell-based or functional assay. The source holds these as a separate data set.
The target is the same in data set [4]. Nature of the data set: cell-based or functional assay. The source holds these as a separate data set.

Non-standard residues stand in square brackets, D forms with d. Trp(6-F) = N[C@@H](Cc1c[nH]c2cc(F)ccc12)C(=O)O; Bpa = N[C@@H](Cc1ccc(C(=O)c2ccccc2)cc1)C(=O)O; 1Nal = N[C@@H](Cc1cccc2ccccc12)C(=O)O; 2Nal = N[C@@H](Cc1ccc2ccccc2c1)C(=O)O

Take `CC[C@H](C)[C@H](NC(C)=O)C(=O)N[C@H]1CSSC[C@@H](C(=O)N[C@H](C(N)=O)[C@@H](C)O)NC(=O)[C@H](CCCNC(=N)N)NC(=O)[C@H](Cc2cnc[nH]2)NC(=O)[C@H](C)NC(=O)CNC(=O)[C@H](Cc2c[nH]c3ccccc23)NC(=O)[C@H](CC(=O)O)NC(=O)[C@H](CCC(N)=O)NC(=O)[C@H](Cc2cn(C)c3ccccc23)NC(=O)[C@H](C(C)C)NC1=O` [CA28]: the Serum concentration in data set [1] (time 0.02 days, historical data) is on record as 34; in data set [1] (time 0.042 days, historical data) it was 17; in data set [1] (time 0.167 days, historical data) it was 9; in data set [1] (time 0.333 days, historical data), 5; in data set [1] (time 1 day, historical data) it was 1.5. For the same molecule, the level at 4.008 h in data set [1] (cynomolgus monkey, serum, iv, 200 mg/kg, read-out: Serum Concentration) came out at 9000 ng/mL. Moreover, the level at 0.48 h in data set [1] (cynomolgus monkey, serum, IV 200 mg/kg, time 0.02 days, historical data, HPLC, read-out: Serum Concentration) stood at 34000 ng/mL. Besides, the level at 1.008 h in data set [1] (cynomolgus monkey, serum, IV 200 mg/kg, time 0.042 days, historical data, HPLC, read-out: Serum Concentration) is 17000 ng/mL. Moreover, the level at 7.992 h in data set [1] (cynomolgus monkey, serum, IV 200 mg/kg, time 0.333 days, historical data, HPLC, read-out: Serum Concentration) came out at 5000 ng/mL. For the same molecule, the level at 24 h in data set [1] (cynomolgus monkey, serum, IV 200 mg/kg, time 1 day, historical data, HPLC, read-out: Serum Concentration) is 1500 ng/mL.
In the case of “Ac-ICV(1-Nal)QDWGAHRCT-COOH (Ac-ICV[1Nal]QDWGAHRCT-OH; cysteine pairing not given here) [Ac V4(1-Nal)/H9A-OH]”, the Activity over compstatin in the data set on complement activation was 30 × more.
On to “Ac-ICV(2-IgI)QDWGAHRCT-CONH2 (Ac-ICV[2‑IgI]QDWGAHRCT-NH2; cysteine pairing not given here) [Ac-V42IgI/H9A]”, for which the Activity over compstatin in the data set with complement activation was 39 × more.
Regarding “Ac-ICV(2-IgI)QDWGAHRCT-COOH (Ac-ICV[2‑IgI]QDWGAHRCT-OH; cysteine pairing not given here) [Ac-V42IgI/H9A-OH]”, the Activity over compstatin in the data set with complement activation is 37 × more.
With “Ac-ICV(2-Nal)QDWGAHRCT-CONH2 (Ac-ICV[2Nal]QDWGAHRCT-NH2; cysteine pairing not given here) [Ac-V4(2-Nal)/H9A]”, the Activity over compstatin in the data set with complement activation is on record as 99 × more.
Consider “Ac-ICV(2-Nal)QDWGAHRCT-COOH (Ac-ICV[2Nal]QDWGAHRCT-OH; cysteine pairing not given here) [Ac V4(2-Nal)/H9A-OH]”, for which the Activity over compstatin with complement activation is 38 × more.
“Ac-ICV(5-methyl-W)QDWGAHRCT-CONH2 [Ac-V4(5-MeW)/H9A]”: in the data set on complement activation, the Activity over compstatin is reported as 67 × more.
For the molecule “Ac-ICV(5fW)QDWGAHRCT-CONH2 [Ac-V4(5fW)/H9A]”, the Activity over compstatin in the data set on complement activation is recorded as 31 × more.
“Ac-ICV(Bpa)QDWGAHRCT-CONH2 (Ac-ICV[Bpa]QDWGAHRCT-NH2; not fully specified (bridges); printed as Ac-ICV(Bpa)QDWGAHRCT-CONH2; cysteine pairing not given here) [Ac-V4(Bpa)/H9A]”: the Activity over compstatin in the data set on complement activation is listed as 86 × more.
On to “Ac-ICV(Bpa)QDWGAHRCT-COOH (Ac-ICV[Bpa]QDWGAHRCT-OH; not fully specified (bridges); printed as Ac-ICV(Bpa)QDWGAHRCT-COOH; cysteine pairing not given here) [Ac-V4(Bpa)/H9A-OH]”, for which the Activity over compstatin in the data set with complement activation is recorded as 49 × more.
Turning to “Ac-ICVDhtQDWGAHRCT-COOH [Ac-V4Dht/H9A-OH]”, in the data set on complement activation, the Activity over compstatin is 5 × more.
In the case of Ac-ICVVQDWGHHRCT-CONH2 [Ac-compstatin], in the data set with complement activation, the Activity over compstatin is 3 × more.
With “Ac-ICVWQD(5fW)GAHRCT-CONH2 [Ac-V4W/W7(5fW)/H9A]”, the Activity over compstatin in the data set on complement activation is reported as 121 × more.
Ac-ICVWQDWGAHRCT-CONH2 [Ac-V4W/H9A]: in the data set on complement activation, the Activity over compstatin is 45 × more.
In the case of “Ac-ICVWQDWGAHRCdT-COOH [Ac-V4W/H9A/T13dT-OH]”, in the data set on complement activation, the Activity over compstatin was 55 × more.
On to Ac-ICVYQDWGAHRCT-CONH2 [Ac-V4Y/H9A], for which the Activity over compstatin with complement activation is listed as 14 × more.
Turning to “H-GICV(6fW)QD(6fW)GAHRCTN-COON (H-GICV[Trp(6-F)]QD[Trp(6-F)]GAHRCTN-OH; not fully specified (bridges); cysteine pairing not given here) [+G/V4(6fW)/W7(6fW)H9A+N-OH]”, the Activity over compstatin in the data set on complement activation is given as 126 × more.

B1: CA28-AEEAc-Lys-(PEG40k) (peptide)
peptide: ICVWQDWGAHRCTK
modifications: N-terminal acetyl; 1-methyl-tryptophan at position 4; disulfide Cys2-Cys12; AEEAc linker after Thr13; linear 40 kD mPEG (NOF ME-400GS, glutaryl) on the Lys side chain; C-terminal amide
Regarding B1, the “IC50 (read off the curve); classical pathway complement activation (C3b deposition ELISA, human plasma)” value (from here on “IC50 (read off the curve)”) in data set [2] is roughly 700 nM. Besides, the “IC50, classical complement inhibition assay (C3b deposition ELISA)” value in data set [3] was found to be 1290 nM.

B2: CA28-AEEAc-Lys(mPEG40K-carbonyl) (peptide)
peptide: ICVWQDWGAHRCTK
modifications: not fully specified; N-terminal acetyl; 1-methyl-tryptophan at position 4; disulfide Cys2-Cys12; AEEAc linker after Thr13; linear 40 kD mPEG (NOF ME-400TS, carbonyl) on the Lys side chain; C-terminal amide
With B2, in data set [2], the “IC50 (read off the curve)” value is roughly 700 nM.

B3: CA28-AEEAc-Lys(mPEG40K-succinyl) (peptide)
peptide: ICVWQDWGAHRCTK
modifications: N-terminal acetyl; 1-methyl-tryptophan at position 4; disulfide Cys2-Cys12; AEEAc linker after Thr13; linear 40 kD mPEG (NOF ME-400CS, succinyl) on the Lys side chain; C-terminal amide
In the case of B3, in data set [2], the “IC50 (read off the curve)” value was roughly 700 nM.

B4: CA28-AEEAc-Lys(mPEG40K-hexanoyl) (peptide)
peptide: ICVWQDWGAHRCTK
modifications: N-terminal acetyl; 1-methyl-tryptophan at position 4; disulfide Cys2-Cys12; AEEAc linker after Thr13; linear 40 kD mPEG (NOF ME-400HS, hexanoyl) on the Lys side chain; C-terminal amide
As for B4, the “IC50 (read off the curve)” value in data set [2] is roughly 700 nM.

B5: CA28-AEEAc-Lys-(PEG30k) (peptide)
peptide: ICVWQDWGAHRCTK
modifications: N-terminal acetyl; 1-methyl-tryptophan at position 4; disulfide Cys2-Cys12; AEEAc (8-amino-3,6-dioxaoctanoyl) linker after Thr13; linear 30 kD mPEG (NOF ME-300GS) on the Lys side chain; C-terminal amide
B5: the “IC50, classical complement inhibition assay (C3b deposition ELISA)” value in data set [3] was 1260 nM.

B6: CA28-2GS-BF (bifunctionalized PEG-based compstatin analog, GS type) (peptide)
peptide: ICVWQDWGAHRCTK
modifications: N-terminal acetyl; 1-methyl-tryptophan at position 4; disulfide Cys2-Cys12; AEEAc linker after Thr13; Lys side chain coupled to one end of a bifunctional linear 40 kD PEG (glutaryl, GS type); C-terminal amide
For B6, in data set [4], the “% Parent in Q1 (Type III cells with high C3d deposition); modified Ham's assay, 50 ug/ml” value came out at 0.01%; the “% Parent in Q2 (Type I and II cells with high C3d deposition); modified Ham's assay, 50 ug/ml” value came out at 0.01%; the “% Parent in Q3 (Type III cells without significant C3d deposition); modified Ham's assay, 50 ug/ml” value was 61.5%; the “% Parent in Q4 (Type I and II cells without significant C3d deposition); modified Ham's assay, 50 ug/ml” value was 38.5%.
